Measured values reported in patent US20090170762A1, “Treatment of Diabetes Related Obesity” (UUTech Limited, priority 2005, published 2009).
Ends that are not written are not given here.

Legend:
ob/ob mice [1] = experiment: Acute antihyperglycaemic and insulin releasing activity with glucose and native GIP in ob/ob mice; format: in vivo, mouse; settings: 25 nmol/kg i.p. with GIP and glucose 18 mmol/kg, vs native GIP
Procedure: (§1) Animals. Obese diabetic (ob/ob) mice derived from the colony maintained at Aston University, UK (Bailey C. J. et al., 1982, Int. J. Obes. 6:11-21) were used at 14-18 weeks of age. Animals were age-matched, divided into groups and housed individually in an air-conditioned room at 22±2° C. with a 12 hour light: 12 hour dark cycle (08:00-20:00 hr). Drinking water and a standard rodent maintenance diet (Trouw Nutrition, Cheshire, UK) were freely available. All animal experiments were carried out in accordance with the UK Animals (Scientific Procedures) Act 1986.
Biochemical analysis. Plasma glucose was assayed by an automated glucose oxidase procedure ([…]) using a Beckman Glucose Analyzer II (Beckman Instruments, Galway, Ireland). Plasma insulin was assayed by radioimmunoassay.
Methods. […] All test solutions were administered in a final volume of 5 ml/kg body weight. Blood samples were collected from the cut tip of the tail vein of conscious mice into chilled fluoride/heparin coated glucose microcentrifuge tubes (Sarstedt, Numbrecht, Germany) immediately prior to injection and at 15, 30 and 60 minutes post injection. Blood samples were immediately centrifuged using a Beckmnan microcentrifuge (Beckman Instruments, High Wycombe, Buckinghamshire, UK) for 30 seconds at 13,000×g. Plasma glucose was assayed using a Beckman Glucose Analyzer n (Beckman Instruments, High Wycombe, Buckinghamshire, UK) (Stevens, J. F., 1971, Clin. Chim. Acta 32:199-201) and plasma insulin was determined by RIA (Flatt, P. R. and Bailey, C. J., 1981, Diabetologia 5:573-577). All animal studies were carried out in accordance with the UK Animals (Scientific Procedures) Act 1986.

BRIN-BD11 cells = experiment: Insulin secretion from BRIN-BD11 cells; format: cell-based
Procedure: Tissue Culture. Chinese Hamster Lung (CHL) fibroblast cells stably transfected with the human GIP-R were cultured in DMEM tissue culture medium containing 10%. (v/v) fetal bovine serum, 1% (v/v) antibiotics (100 U/ml penicillin, 0.1 mg/ml streptomycin) (all from Gibco, Paisley, Strathclyde, Scotland). BRIN-BD11 cells were cultured in RPMI-1640 tissue culture medium containing 10% (v/v) fetal bovine serum, 1% (v/v) antibiotics (100 U/ml penicillin, 0.1 mg/ml streptomycin) and 11.1 mm glucose. The origin and secretory characteristics of these cells have been described in detail previously (McClenaghan, N. H. et al., 1996, Diabetes 45:1132-1140). The cells were maintained in sterile tissue culture flasks (Corning Glass Works, Sunderland, UK) at 37° C. in an atmosphere of 5% CO2 and 95% air using a LEEC incubator (Laboratory Technical Engineering, Nottingham, UK).
Methods. Insulin release from BRIN-BD11 cells was determined by use of cell monolayers as described previously (Gault, V. A. et al. 2002, Biochem. J. 367:913-920). In brief, BRIN-BD11 cells were seeded into 24-well plates (Nunc, Roskilde, Denmark) at a density of 1.5×10^5 cells per well and allowed to attach overnight in RPMI-1640 culture medium at 37° C. Acute tests for insulin secretion were preceded by 40 minutes pre-incubation at 37° C. in 1.0 ml Krebs Ringer Bicarbonate Buffer (KRBB, 115 mm NaCl, 4.7 mm KCl, 1.28 mm CaCl2, 1.2 mM MgSO4, 1.2 mm KH2PO4, 25 mM HEPES and 10 mm NaHCO3; pH 7.4 with NaOH) supplemented with 0.1% (w/v) BSA and 1.1 mM glucose. […] After 20 minutes incubation, the buffer was removed and used for measurement of insulin by radioimmunoassay (Flatt, P. R. and Bailey, C. J., 1981, Diabetologia 5:573-577).

ob/ob mice [2] = experiment: 14 once-daily injections of GIP analogues in ob/ob mice; format: in vivo, mouse; settings: 14 days daily, insulin 50 U/kg
Procedure: as §1
Methods. […] Intraperitoneal glucose tolerance (18 mmol/kg body wt) and insulin sensitivity (50 U/kg body wt) tests were performed at the end of the study period. Blood samples taken from the cut tip of the tail vein of conscious mice at the times indicated in the Figures were immediately centrifuged using a Beckman microcentrifuge (Beckman Instruments, UK) for 30 seconds at 13,000×g. The resulting plasma was then aliquoted into fresh Eppendorf tubes and stored at −20° C. prior to glucose and insulin determinations.

Sequence: YAPGTFISDYSIAMDKIHQQDFVNWLLAQKGKKNDWKHNITQ [(Pro^3)GIP]
- plasma glucose and insulin profiles when administered together with native GIP (ob/ob mice [1]): significantly inhibited the action of GIP
- Maximal insulin response (% GIP max) (BRIN-BD11 cells; BRIN-BD11 cells, 5.6 mm glucose, 20 min): 53 ± 5 % GIP max
- Insulin response in presence of 10^-7 M GIP (% GIP max) (BRIN-BD11 cells; BRIN-BD11 cells, 5.6 mm glucose, in presence of 10^-7 M native GIP): 64 ± 2 % GIP max
- effect on GIP-stimulated insulin secretion (BRIN-BD11 cells; in presence of GIP (10^-7 m)): significantly inhibited
- hypoglycemic action of insulin (ob/ob mice [2]): significantly augmented
